According to PubChem BioAssay AID248 (DTP/NCI, 2004):
Inconclusive results and toxic doses are left out. Rule as the data show it: active = T/C of 150% or more; inactive = T/C below 125%.

System: L1210 leukemia ip in BDF1 mice, survival T/C
Assay: NCI In Vivo Anticancer Drug Screen. Data for tumor model L1210 Leukemia (intraperitoneal) in B6D2F1 (BDF1) mice
Settings: endpoint: mean survival time, higher = longer survival
How it was run: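 Value reflects the ratio of survival in compound-treated mice to survival in vehicle-treated controls, with both groups carrying the same transplanted tumor.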

[1] = dose: 50.0 mg/kg/injection, schedule: Q01DX009 (ip), vehicle: saline with Tween-80
[2] = dose: 100.0 mg/kg/injection, schedule: Q01DX009 (ip), vehicle: saline with Tween-80
[3] = dose: 100.0 mg/kg/injection, schedule: Q04DX003 (ip), vehicle: saline with Tween-80
[4] = dose: 200.0 mg/kg/injection, schedule: Q01DX009 (ip), vehicle: saline with Tween-80
[5] = dose: 200.0 mg/kg/injection, schedule: Q04DX003 (ip), vehicle: saline with Tween-80
[6] = dose: 100.0 mg/kg/injection, schedule: Q01DX009 (ip), vehicle: Klucel (hydroxypropylcellulose) (HPC)
[7] = dose: 100.0 mg/kg/injection, schedule: Q04DX003 (ip), vehicle: Klucel (hydroxypropylcellulose) (HPC)
[8] = dose: 200.0 mg/kg/injection, schedule: Q01DX009 (ip), vehicle: Klucel (hydroxypropylcellulose) (HPC)
[9] = dose: 200.0 mg/kg/injection, schedule: Q04DX003 (ip), vehicle: Klucel (hydroxypropylcellulose) (HPC)
[10] = dose: 400.0 mg/kg/injection, schedule: Q01DX009 (ip), vehicle: Klucel (hydroxypropylcellulose) (HPC)
[11] = dose: 400.0 mg/kg/injection, schedule: Q04DX003 (ip), vehicle: Klucel (hydroxypropylcellulose) (HPC)
[12] = dose: 100.0 mg/kg/injection, schedule: Q01DX009 (ip), vehicle: other
[13] = dose: 200.0 mg/kg/injection, schedule: Q01DX009 (ip), vehicle: other

Measured: T/C

O=[N+]([O-])c1ccc(NCc2ccccc2O)cc1
inactive: dose: 75.0 mg/kg/injection, schedule: Q04DX003 (ip), vehicle: other 110 % of control | dose: 100.0 mg/kg/injection, schedule: Q01DX001 (ip), vehicle: Klucel (hydroxypropylcellulose) (HPC) 101 % of control | dose: 150.0 mg/kg/injection, schedule: Q04DX003 (ip), vehicle: other 97 % of control | dose: 200.0 mg/kg/injection, schedule: Q01DX001 (ip), vehicle: Klucel (hydroxypropylcellulose) (HPC) 106 % of control | dose: 300.0 mg/kg/injection, schedule: Q04DX003 (ip), vehicle: other 103 % of control | dose: 400.0 mg/kg/injection, schedule: Q01DX001 (ip), vehicle: Klucel (hydroxypropylcellulose) (HPC) 101 % of control

Cc1cc(C)c(C(Cl)(Cl)Cl)c(C)c1Cl
inactive: dose: 22.0 mg/kg/injection, schedule: Q01DX009 (ip), vehicle: saline with Tween-80 119 % of control | dose: 33.0 mg/kg/injection, schedule: Q01DX009 (ip), vehicle: Klucel (hydroxypropylcellulose) (HPC) 113 % of control | dose: 33.0 mg/kg/injection, schedule: Q01DX009 (ip), vehicle: saline with Tween-80 112 % of control | dose: 50.0 mg/kg/injection, schedule: Q01DX009 (ip), vehicle: Klucel (hydroxypropylcellulose) (HPC) 100 % of control | [1] 118 % of control | dose: 75.0 mg/kg/injection, schedule: Q01DX009 (ip), vehicle: Klucel (hydroxypropylcellulose) (HPC) 107 % of control | dose: 75.0 mg/kg/injection, schedule: Q01DX009 (ip), vehicle: saline with Tween-80 113 % of control | dose: 100.0 mg/kg/injection, schedule: Q01DX001 (ip), vehicle: carboxymethylcellulose (CMC) 121 % of control | [2] 121 % of control | [3] 120 % of control | dose: 200.0 mg/kg/injection, schedule: Q01DX001 (ip), vehicle: carboxymethylcellulose (CMC) 118 % of control | [4] 103 % of control | [5] 108 % of control | dose: 400.0 mg/kg/injection, schedule: Q01DX001 (ip), vehicle: carboxymethylcellulose (CMC) 121 % of control

O=CNc1nc(Cl)c2ncn(C3OC(COCc4ccccc4)C(OCc4ccccc4)C3OCc3ccccc3)c2n1 (stereo unspecified)
inactive: dose: 12.5 mg/kg/injection, schedule: Q01DX005 (ip), vehicle: saline 104 % of control | dose: 25.0 mg/kg/injection, schedule: Q01DX005 (ip), vehicle: saline 98 % of control | dose: 50.0 mg/kg/injection, schedule: Q01DX005 (ip), vehicle: saline 102 % of control | dose: 100.0 mg/kg/injection, schedule: Q01DX005 (ip), vehicle: saline 113 % of control | dose: 200.0 mg/kg/injection, schedule: Q01DX005 (ip), vehicle: saline 106 % of control

CCCCNC(=O)Nc1ccc(OC)cc1
inactive: [6] 103 % of control | [7] 96 % of control | [8] 92 % of control | [9] 93 % of control | [10] 90 % of control | [11] 102 % of control

CN(CCC(C#N)c1ccccc1)C(=O)c1ccccc1 (stereo unspecified)
inactive: dose: 75.0 mg/kg/injection, schedule: Q01DX001 (ip), vehicle: saline 98 % of control | dose: 150.0 mg/kg/injection, schedule: Q01DX001 (ip), vehicle: saline 96 % of control

O=C1Oc2ccccc2C1=O
inactive: dose: 50.0 mg/kg/injection, schedule: Q01DX009 (ip), vehicle: saline 98 % of control | dose: 75.0 mg/kg/injection, schedule: Q01DX001 (ip), vehicle: other 101 % of control | dose: 100.0 mg/kg/injection, schedule: Q01DX009 (ip), vehicle: saline 102 % of control | dose: 100.0 mg/kg/injection, schedule: Q04DX003 (ip), vehicle: saline 109 % of control | dose: 150.0 mg/kg/injection, schedule: Q01DX001 (ip), vehicle: other 101 % of control | dose: 200.0 mg/kg/injection, schedule: Q01DX009 (ip), vehicle: saline 91 % of control | dose: 200.0 mg/kg/injection, schedule: Q04DX003 (ip), vehicle: saline 98 % of control

CCNc1ncnc2c1cnn2C
inactive: dose: 100.0 mg/kg/injection, schedule: Q01DX001 (ip), vehicle: saline 95 % of control | dose: 200.0 mg/kg/injection, schedule: Q01DX001 (ip), vehicle: saline 103 % of control | dose: 400.0 mg/kg/injection, schedule: Q01DX001 (ip), vehicle: saline 114 % of control

O=C1c2sccc2-c2cccc3cccc1c23 (tested in a mixture with another compound)
inactive: [7] 96 % of control | [9] 102 % of control | [11] 106 % of control

O=C(O)C1CCC=CCC1
inactive: dose: 50.0 mg/kg/injection, schedule: Q01DX009 (ip), vehicle: other 91 % of control | [12] 96 % of control | [13] 98 % of control

CCCCCCC(=O)/C=C\c1ccc([N+](C)(C)C)cc1
inactive: dose: 25.0 mg/kg/injection, schedule: Q01DX009 (sc), vehicle: steriod suspending solution 93 % of control | dose: 25.0 mg/kg/injection, schedule: Q04DX003 (sc), vehicle: steriod suspending solution 94 % of control | dose: 50.0 mg/kg/injection, schedule: Q01DX009 (sc), vehicle: steriod suspending solution 97 % of control | dose: 50.0 mg/kg/injection, schedule: Q04DX003 (sc), vehicle: steriod suspending solution 92 % of control | dose: 100.0 mg/kg/injection, schedule: Q01DX001 (sc), vehicle: steriod suspending solution 86 % of control | dose: 100.0 mg/kg/injection, schedule: Q04DX003 (sc), vehicle: steriod suspending solution 106 % of control

COc1ccc(NC(=O)C(Br)C(Br)c2ccccc2)c(Cl)c1 (stereo unspecified)
inactive: [6] 102 % of control | [8] 97 % of control | [10] 96 % of control

Cn1c(CC(O)(C(F)(F)F)C(F)(F)F)cc2ccccc21
inactive: [12] 95 % of control | [13] 95 % of control | dose: 400.0 mg/kg/injection, schedule: Q01DX009 (ip), vehicle: other 93 % of control

O/N=C/c1cccc(/C=N/O)c1
inactive: [1] 94 % of control | dose: 50.0 mg/kg/injection, schedule: Q04DX003 (ip), vehicle: saline with Tween-80 95 % of control | [2] 98 % of control | [3] 97 % of control | [4] 102 % of control | [5] 100 % of control | dose: 400.0 mg/kg/injection, schedule: Q01DX009 (ip), vehicle: saline with Tween-80 95 % of control | dose: 400.0 mg/kg/injection, schedule: Q04DX003 (ip), vehicle: saline with Tween-80 93 % of control

O=C(NCCCCCCCCCCNC(=O)Nc1ccc(C2=NCCN2)cc1)Nc1ccc(C2=NCCN2)cc1
inactive: dose: 62.5 mg/kg/injection, schedule: Q01DX Z (ip), vehicle: carboxymethylcellulose (CMC) 98 % of control | dose: 125.0 mg/kg/injection, schedule: Q01DX Z (ip), vehicle: carboxymethylcellulose (CMC) 98 % of control | dose: 250.0 mg/kg/injection, schedule: Q01DX Z (ip), vehicle: carboxymethylcellulose (CMC) 106 % of control | dose: 500.0 mg/kg/injection, schedule: Q01DX Z (ip), vehicle: carboxymethylcellulose (CMC) 114 % of control

CN(C)CCCNc1c2ccccc2nc2ccc(F)cc12
inactive: dose: 5.0 mg/kg/injection, schedule: Q01DX001 (ip), vehicle: saline 100 % of control | dose: 10.0 mg/kg/injection, schedule: Q01DX001 (ip), vehicle: saline 96 % of control | dose: 20.0 mg/kg/injection, schedule: Q01DX001 (ip), vehicle: saline 107 % of control
